Laboratory results from US9309263B2, “Fused multi-cyclic sulfone compounds as inhibitors of beta-secretase and methods of use thereof” (AMGEN INC., priority 2013, dated 2016).
pIC50: −log10 of the molar value.

Tests used:
[1] = tested on: Aβ 40 in conditioned medium of cells stably expressing Amyloid Precursor Protein (APP); experiment: In vitro BACE cell-based assay (Aβ 40 sandwich ELISA); conditions: Homo sapiens, HEK293; HEK cells; average IC50
Method in brief: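 Aβ40 in conditioned medium measured by pAb40/biotin-6E10 sandwich ELISA with time-resolved europium fluorescence, after 24 h exposure of stable APP cells to compounds (10-point series starting 100 μM or 10 μM; 0.1% DMSO). IC50 fitted from percent of control against concentration.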

Cathepsin D (Cat D) = Cathepsin D (Cat D) (Homo sapiens, UniProt P07339); experiment: In vitro enzymatic Cathepsin D (Cat D) FRET assay; type: biochemical; conditions: read-out: CatD IC50
Method in brief: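 FRET peptide substrate (20 nM) is cleaved by CHO-derived recombinant enzyme (9 nM) for 1 h after a 1 h inhibitor pre-incubation, at pH 3.5 in citrate buffer with 5 mM CHAPS and 10% DMSO. Tris addition ends the reaction; fluorescence measured at 500 nm excitation, 580 nm emission.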

[2] = target: Beta Secretase enzyme (BACE) (Homo sapiens, UniProt P56817); experiment: In vitro enzymatic BACE FRET assay; type: biochemical; conditions: average IC50; read-out: BACE1 FRET assay IC50
Method in brief: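 Cleavage of a quenched 50 nM FRET peptide substrate, read as fluorescence (excitation 488 nm, […]) after 1 h and Tris quench to neutrality. Buffer: 0.05 M acetate pH 4.2 with 10% DMSO and 100 uM genapol. Inhibitor dilutions were pre-incubated 1 h with 0.2 nM enzyme.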

Sequence of Cathepsin D (Cat D) (P07339 65-412, species assumed): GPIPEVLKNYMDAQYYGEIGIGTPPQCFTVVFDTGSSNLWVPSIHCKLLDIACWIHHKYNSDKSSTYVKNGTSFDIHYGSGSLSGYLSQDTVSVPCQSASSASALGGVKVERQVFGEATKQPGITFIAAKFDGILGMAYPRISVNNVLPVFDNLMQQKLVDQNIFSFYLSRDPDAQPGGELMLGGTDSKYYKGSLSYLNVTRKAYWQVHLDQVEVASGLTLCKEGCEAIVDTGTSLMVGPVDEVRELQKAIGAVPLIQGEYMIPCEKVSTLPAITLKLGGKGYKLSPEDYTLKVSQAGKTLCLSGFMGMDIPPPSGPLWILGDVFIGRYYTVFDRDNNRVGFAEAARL
Sequence of Beta Secretase enzyme (BACE) (P56817 46-501): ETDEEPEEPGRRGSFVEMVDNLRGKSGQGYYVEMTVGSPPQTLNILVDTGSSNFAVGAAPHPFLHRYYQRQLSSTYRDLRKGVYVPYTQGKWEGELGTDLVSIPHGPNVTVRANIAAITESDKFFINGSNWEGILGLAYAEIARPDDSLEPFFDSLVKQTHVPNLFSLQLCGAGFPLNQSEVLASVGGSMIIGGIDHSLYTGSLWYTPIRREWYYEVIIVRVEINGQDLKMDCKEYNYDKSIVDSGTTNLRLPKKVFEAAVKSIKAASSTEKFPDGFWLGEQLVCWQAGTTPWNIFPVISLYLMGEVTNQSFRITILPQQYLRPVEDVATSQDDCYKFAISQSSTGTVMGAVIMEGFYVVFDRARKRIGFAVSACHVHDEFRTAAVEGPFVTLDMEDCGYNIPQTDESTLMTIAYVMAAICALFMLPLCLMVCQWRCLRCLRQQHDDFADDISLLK

Structure (SMILES) | pIC50 [1] | pIC50 (Cathepsin D (Cat D)) | pIC50 [2]
CC1(C)C(N)=N[C@]2(C)c3cc(NC(=O)c4ccc(Cl)cn4)ccc3OCC[C@H]2S1(=O)=O [Example 186, N-((4aR,11bR)-2-amino-3,3,11b-trimethyl-4,4-dioxido-4a,5,6,11b-tetrahydro-3H-[1]benzoxepino[4,5-b][1,4]thiazin-10-yl)-5-chloro-2-pyridinecarboxamide] | 8.00 | 3.55 | 8.22
Cc1cc(Cl)cnc1C(=O)Nc1ccc2c(c1)[C@@]1(C)N=C(N)C(C)(C)S(=O)(=O)[C@@H]1C[C@H](C)O2 [Example 189, N-((4aR,6S,11bR)-2-amino-3,3,6,11b-tetramethyl-4,4-dioxido-4a,5,6,11b-tetrahydro-3H-[1]benzoxepino[4,5-b][1,4]thiazin-10-yl)-5-chloro-3-methyl-2-pyridinecarboxamide] | 9.00 | 3.72 | 8.52
Cc1cc(Cl)cnc1C(=O)Nc1ccc2c(c1)[C@@]1(C)N=C(N)C(C)(C)S(=O)(=O)[C@@H]1CC(C)(C)O2 [Example 190, N-((4aR,11bR)-2-amino-3,3,6,6,11b-pentamethyl-4,4-dioxido-4a,5,6,11b-tetrahydro-3H-[1]benzoxepino[4,5-b][1,4]thiazin-10-yl)-5-chloro-3-methyl-2-pyridinecarboxamide] | 8.70 | 3.36 | 8.30
CC#CCOc1cnc(C(=O)Nc2ccc3c(c2)[C@@]2(C)N=C(N)C(C)(C)S(=O)(=O)[C@@H]2CCO3)cn1 [Example 191, N-((4aR,11bR)-2-amino-3,3,11b-trimethyl-4,4-dioxido-4a,5,6,11b-tetrahydro-3H-[1]benzoxepino[4,5-b][1,4]thiazin-10-yl)-5-(2-butyn-1-yloxy)-2-pyrazinecarboxamide] | 9.52 | 3.20 | 9.15
CC1(C)C(N)=N[C@]2(C)c3cc(NC(=O)c4ccc(C#CC5CC5)cn4)ccc3OCC[C@H]2S1(=O)=O [Example 193, N-((4aR,11bR)-2-amino-3,3,11b-trimethyl-4,4-dioxido-4a,5,6,11b-tetrahydro-3H-[1]benzoxepino[4,5-b][1,4]thiazin-10-yl)-5-(cyclopropylethynyl)-2-pyridinecarboxamide] | 8.22 | 3.00 | 8.40

Other lines, results leading:

pIC50 [1] | pIC50 (Cathepsin D (Cat D)) | pIC50 [2] | Structure (SMILES)
7.89 | 3.29 | 7.68 | COc1ccc(C(=O)Nc2ccc3c(c2)[C@@]2(C)N=C(N)C(C)(C)S(=O)(=O)[C@@H]2CCO3)nc1 [Example 185, N-((4aR,11bR)-2-amino-3,3,11b-trimethyl-4,4-dioxido-4a,5,6,11b-tetrahydro-3H-[1]benzoxepino[4,5-b][1,4]thiazin-10-yl)-5-methoxy-2-pyridinecarboxamide]
7.19 | 2.91 | 7.80 | Cc1cc(OCC(F)(F)F)cnc1C(=O)Nc1ccc2c(c1)[C@@]1(C)N=C(N)C(C)(C)S(=O)(=O)[C@@H]1CCO2 [Example 187, N-((4aR,11bR)-2-amino-3,3,11b-trimethyl-4,4-dioxido-4a,5,6,11b-tetrahydro-3H-[1]benzoxepino[4,5-b][1,4]thiazin-10-yl)-3-methyl-5-(2,2,2-trifluoroethoxy)-2-pyridinecarboxamide]
8.52 | 2.81 | 8.10 | Cc1cc(C(F)(F)F)cnc1C(=O)Nc1ccc2c(c1)[C@@]1(C)N=C(N)C(C)(C)S(=O)(=O)[C@@H]1CCO2 [Example 188, N-((4aR,11bR)-2-amino-3,3,11b-trimethyl-4,4-dioxido-4a,5,6,11b-tetrahydro-3H-[1]benzoxepino[4,5-b][1,4]thiazin-10-yl)-3-methyl-5-(trifluoromethyl)-2-pyridinecarboxamide]
9.00 | 3.36 | 8.70 | Cc1cc(C#N)cnc1C(=O)Nc1ccc2c(c1)[C@@]1(C)N=C(N)C(C)(C)S(=O)(=O)[C@@H]1CCO2 [Example 192, N-((4aR,11bR)-2-amino-3,3,11b-trimethyl-4,4-dioxido-4a,5,6,11b-tetrahydro-3H-[1]benzoxepino[4,5-b][1,4]thiazin-10-yl)-5-cyano-3-methyl-2-pyridinecarboxamide]
